Like-named read-outs stand apart in the source and are kept apart here.
Biological target: T1, Ba/F3 KIF5B-RET (Homo sapiens, UniProt P07949, cells depend on it, form not given)
T1 construct: IC50 (nM); other: Experiment 1; other: Experiment 2; fused on or other part: P33176 (Kinesin-1 heavy chain)
Experiment: Compound I anti-cell proliferation comparison (FIG. 5A, 5B)
Format: cell-based
Settings: for GI50: read-out: IC50 (the source's name)
Description: The KIF5B-RET gene was synthesized at GenScript and cloned into pCDH-CMV-MCS-EF1-Puro plasmid (System Biosciences, Inc). KIF5B-RET point mutation V804M and G810C were generated at GenScript by PCR and confirmed by sequencing. Ba/F3-KIF5B-RET wild type and mutant were generated by transducing Ba/F3 cells with lentivirus containing KIF5B-RET wide type or mutant. Stable cell lines were selected by puromycin treatment, followed by IL-3 withdrawal. Briefly, 5×10^6 Ba/F3 cells were transduced with lentivirus supernatant in the presence of 8 μg/mL protamine sulfate. The transduced cells were subsequently selected with 1 μg/mL puromycin in the presence of IL3-containing medium RPMI1640, plus 10% FBS. After 10-12 days of selection, the surviving cells were further selected for […] independent growth.
Two thousand cells per well were seeded in 384 well white plate for 24 hrs, and then treated with compounds for 72 hours (37° C., 5% CO2). Cell proliferation was measured using CellTiter-Glo luciferase-based ATP detection assay (Promega) following the manufactures's protocol. IC50 determinations were performed using GraphPad Prism software (GraphPad, Inc., San Diego, Calif.).

T1 sequence (P07949 whole entry G810C, form open, the tested form may be a part): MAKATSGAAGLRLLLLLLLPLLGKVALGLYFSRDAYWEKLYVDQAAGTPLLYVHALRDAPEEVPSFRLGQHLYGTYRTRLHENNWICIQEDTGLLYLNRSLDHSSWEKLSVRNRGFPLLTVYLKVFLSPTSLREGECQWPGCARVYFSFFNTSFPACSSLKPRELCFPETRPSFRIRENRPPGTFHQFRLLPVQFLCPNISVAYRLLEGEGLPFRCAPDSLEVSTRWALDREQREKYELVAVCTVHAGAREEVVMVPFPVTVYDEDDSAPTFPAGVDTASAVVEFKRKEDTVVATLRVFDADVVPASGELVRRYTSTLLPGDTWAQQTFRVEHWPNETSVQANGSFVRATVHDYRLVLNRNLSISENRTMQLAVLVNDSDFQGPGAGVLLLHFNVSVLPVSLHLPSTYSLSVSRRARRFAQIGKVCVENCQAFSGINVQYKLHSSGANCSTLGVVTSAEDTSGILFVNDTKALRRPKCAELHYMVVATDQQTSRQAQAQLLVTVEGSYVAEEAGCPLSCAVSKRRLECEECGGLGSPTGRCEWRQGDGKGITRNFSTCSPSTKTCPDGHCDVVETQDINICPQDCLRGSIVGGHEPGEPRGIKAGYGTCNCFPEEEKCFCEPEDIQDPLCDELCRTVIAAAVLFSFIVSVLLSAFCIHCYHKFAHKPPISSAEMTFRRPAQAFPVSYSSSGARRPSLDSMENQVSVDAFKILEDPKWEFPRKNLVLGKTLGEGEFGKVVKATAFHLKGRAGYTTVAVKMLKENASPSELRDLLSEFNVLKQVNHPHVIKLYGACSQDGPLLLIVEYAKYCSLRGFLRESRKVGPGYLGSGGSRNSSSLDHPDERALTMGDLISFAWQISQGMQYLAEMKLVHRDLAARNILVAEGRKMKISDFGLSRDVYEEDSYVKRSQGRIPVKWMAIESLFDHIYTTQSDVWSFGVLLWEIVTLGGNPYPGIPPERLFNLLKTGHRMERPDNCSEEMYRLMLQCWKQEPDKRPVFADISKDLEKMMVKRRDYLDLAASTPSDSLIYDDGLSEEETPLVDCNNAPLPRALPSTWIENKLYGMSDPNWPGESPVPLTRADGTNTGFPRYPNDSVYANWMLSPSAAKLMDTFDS

IC75 (Experiment 1): 115.4 nM
IC90 (Experiment 1): 720 nM
GI50 (Experiment 1): 18.5 nM
IC75 (Experiment 2): 214.3 nM
IC90 (Experiment 2): 1030 nM
GI50 (Experiment 2): 44.6 nM
Structure (SMILES): CO[C@]1(C(=O)N[C@@H](C)c2ccc(-n3cc(F)cn3)nc2)CC[C@H](c2nc(C)cc(Nc3cc(C)[nH]n3)n2)CC1 [BLU-667]
